# Tests used:
# 15-lipoxygenase (15-LOX) = test: Aortic gene expression by real-time RT-PCR: 15-LOX; type: in vivo, mice; conditions: day 84, ratio to β-actin
# Experimental: FIG. 4 are photos and graphs showing aortas collected on day 84 of dietary intervention. Representative photomicrographs (100×) of aortic root specimens from (A) control and (B) ABA-fed mice. (C) Analysis of lumenal areas and (D) tunica media areas were performed with aortic cross-sections using Image Pro Plus software. (E) Aortic thickness was analyzed as a ratio of the intima to the media. Gene expression in the aorta of (F) endothelial nitric oxide synthase (eNOS) and (G) 15-lipoxygenase (15-LOX) were measured as a ratio to the house-keeping gene β-actin. Data were analyzed as a completely randomized design.
# Total RNA was isolated from aortas using the RNA isolation Minikit (Qiagen) according to the manufacturer's instructions. Total RNA (1 μg) was used to generate a complementary DNA (cDNA) template using the iScript cDNA Synthesis Kit (Bio-Rad, Hercules, Calif.). […] Each gene amplicon was purified with the MiniElute PCR Purification Kit (Qiagen) and quantitated on an agarose gel by using a DNA mass ladder (Promega). […]
# (§1) Complementary DNA (cDNA) concentrations for genes of interest were examined by real-time quantitative PCR using an iCycler IQ System and the iQ SYBR green supermix (Bio-Rad). […] Results are presented as a starting quantity of target cDNA (picograms) per microgram of total RNA. […]
# [1] = test system: monocyte chemoattractant protein 1 (MCP-1); test: Aortic gene expression by real-time RT-PCR: MCP-1; type: in vivo, mice; conditions: P=0.10
# Experimental: FIG. 6 are graphs showing that ABA decreases immune cell infiltration in aortas of ApoE−/− mice and reduces pro-inflammatory gene expression. ApoE −/− mice were fed high fat diets created with or without 100 mg/kg diet racemic abscisic acid (ABA). (A) Infiltration of F4/80^+CD11b^+ macrophages and CD4^+ T-cells into the aorta were assessed with flow cytometry. Gene expression in the aorta of pro-inflammatory markers (B) vascular cell adhesion molecule 1 (VCAM-1), (C) monocyte chemoattractant protein 1 (MCP-1), (D) E-selectin, (F) peroxisome proliferator-activated receptor γ (PPAR γ), and (G) CD36 were measured as a ratio to the housekeeping gene β-actin. (H) MCP-1 protein concentrations (pg/mL) were measured by ELISA. Data were analyzed as a completely randomized design.
# Total RNA was isolated from aortas using the RNA isolation Minikit (Qiagen) according to the manufacturer's instructions. […] Each gene amplicon was purified with the MiniElute PCR Purification Kit (Qiagen) and quantitated on an agarose gel by using a DNA mass ladder (Promega). […]
# as §1
# eNOS = eNOS mRNA expression in HAECs by real time PCR; type: cell-based, human; conditions: 10 μM ABA, 24 hours, P<0.02
# [2] = test system: human aorta endothelial cells (HAECs); test: Intracellular cAMP in human aorta endothelial cells; type: cell-based; conditions: tested 0.01-10 μM
# Experimental: FIG. 7 are graphs showing effect of ABA on (A) cAMP; (B) NO; and (C) eNOS. (A) Confluent human aortic endothelial cell (HAEC) were serum-starved using HBSS buffer for 30 min and then stimulated with various concentrations of ABA (0, 0.01, 0.1, 1, 10 μM) or Forskolin (1 μM) for […]. After removing supernatant, cells were lysated with 0.1 M HCL for 20 minutes to measure non-acetylated cAMP. (B) Confluent HAEC were serum-starved using HBSS buffer for 30 minutes and then stimulated with various concentrations of ABA (0, 0.001, 0.01, 0.1, 1, 10 μM) for 15 minutes to measure NO. Results (pmol/ml) from four independent experiments are depicted. […]
# Confluent human aorta endothelial cells (HAECs) at passage 3 maintained with EGM-2 media (Clonetics, Walkerville, Md.) were adapted to Hank's buffered salt solution buffer for 30 min and then stimulated with ABA or forskolin (1 μM) for 10 min. For intracellular assessment of cAMP, the cells were harvested into 0.1 M HCL and the lysates were obtained by sonication and centrifugation. cAMP the lysates were determined by using an EIA kit (Assay Designs, Ann Arbor, Mich.) and results were obtained from four independent experiments. Nitric oxide levels in the cell culture supernatants were determined with the Nitric Oxide Assay Kit according to manufacturer's instructions (Assay Designs). […]
smiles,measurement,setting,value
"CC1=CC(=O)CC(C)(C)C1(O)/C=C/C(C)=C\C(=O)O (racemic) [ABA, abscisic acid]",Aortic expression of 15-lipoxygenase mRNA vs control,15-lipoxygenase (15-LOX),significantly elevated
same,MCP-1 mRNA expression in the aortic roots vs control,[1],"reduced, though not to statistical significance"
same,eNOS mRNA levels vs vehicle,eNOS,significantly (P<0.02) increased
same,Dose inducing maximal effect on intracellular cAMP,[2],1 µM
same,Lowest dose significantly increasing intracellular cAMP concentrations,[2],0.1 µM

# Source: patent publication US20110054033A1, “METHODS OF USING ABSCISIC ACID FOR AMELIORATING HYPERTENSION AND VASCULAR INFLAMMATION” (Virginia Tech Intellectual Properties, Inc., priority 2009, published 2011)
